pIC50: −log10 of the molar value. One block for each molecule: values may come before it.
Experiments:
[1] = Liver microsomal stability (human); format: in vitro ADME; details: human liver microsomes, 1 μM compound, NADPH regeneration system, 37° C.; for half-life at 1 μM: read-out: T1/2 (min) Human
Method: (§1) After 1 μM compound was incubated with 500 µg/mL of human or mouse liver microsomes and a NADPH regeneration system at 37° C. for different times, respectively, LC-MS-MS was used to analyze the remaining amount of the compound and calculate T1/2.

[2] = In vivo pharmacokinetic experiment in mice; set-up: species or system CD-1 female mice; details: for Vd: read-out: Vdss
Method: CD-1 female mice aged 7 to 10 weeks were intravenously administered and orally administered at a dose of 2 mg/kg and 10 mg/kg, respectively. The mice were fasted for at least 12 h before the administration and given food 4 h after the administration, and they were given ad libitum access to water during the experiment.
On the day of the experiment, animals in the intravenous group were administered the corresponding compound by single injection via the tail vein at an administration volume of 10 mL/kg, and animals in the oral group were administered the corresponding compound by single intragastric injection at an administration volume of 10 mL/kg. The animals were weighed before administration, and the administration volume was calculated according to the body weight. The sample collection time was 0.083 h, 0.167 h, 0.5 h, 1 h, 2 h, 4 h, 8 h and 24 h. About 200 μL of whole blood was collected through the orbital venous plexus at each time point and used to prepare plasma for concentration determination by high performance liquid chromatography-tandem mass spectrometry (LC-MS/MS). The plasma concentrations were processed using a non-compartmental model of Winnolin pharmacokinetic software, and the pharmacokinetic parameters were calculated using a linear-log trapezoidal method.

[3] = test system: Human colon cancer HT29 cells; experiment: In vivo efficacy in HT-29 model, alone and with gemcitabine; set-up: species or system nude mouse; details: HT-29 model in nude mice, day 21
Method: After being subcultured, the cells were collected when they reached the desired amount. 1×10^7 HT29 cells were injected into the left dorsal side of each nude mouse, and the animals were randomly grouped for administration after tumors grew to 100-200 mm^3. The groups were as follows: a solvent control group of 6 mice, a single drug group of 15 mg/kg gemcitabine (GMC), and a combination group of 15 mg/kg gemcitabine and a compound. Gemcitabine was administered intraperitoneally with PBS as a vehicle once a week. The compounds were administered 3 days a week and interrupted for 4 days (3 on/4 off), for 21 consecutive days, and the vehicle was a 0.5% MC suspension containing 1% tween-80. On Tuesday and Thursday each week, tumor volumes and body weight of the mice were measured, and the nude mice were sacrificed on day 21 after the administration. […] The toxicity of the compounds was evaluated according to the body weight of the mice.

[4] = Liver microsomal stability (mouse); format: in vitro ADME; details: mouse liver microsomes, 1 μM compound, NADPH regeneration system, 37° C.; for half-life at 1 μM: read-out: T1/2 (min) Mouse
Method: as §1

[5] = Pharmacokinetic evaluation in rats; format: in vivo, SD female rats
Method: SPF-grade SD female rats aged 7 to 10 weeks were intravenously administered and orally administered at a dose of 1 mg/kg and 10 mg/kg, respectively. The rats were fasted for at least 12 h before the administration and given food 4 h after the administration, and they were given ad libitum access to water during the experiment.
On the day of the experiment, animals in the intravenous group were administered the corresponding compound by single injection via the tail vein at an administration volume of 2 mL/kg, and animals in the oral group were administered the corresponding compound by single intragastric injection at an administration volume of 10 mL/kg. The animals were weighed before administration, and the administration volume was calculated according to the body weight. The sample collection time was 0.083 h (only intravenous group), 0.125 h (only oral group), 0.25 h, 0.5 h, 1 h, 2 h, 4 h, 6 h, 8 h and 24 h. About 200 μL of whole blood (EDTA-K2 anticoagulated) was collected via the jugular vein or other suitable vein at each time point and used to prepare plasma for concentration determination by high performance liquid chromatography-tandem mass spectrometry (LC-MS/MS). All animals were suffocated by CO2 after the PK samples were collected at the last time point. The plasma concentrations were processed using a non-compartmental model of Winnolin™ version 8.2 (Pharsight, mountain View, CA) pharmacokinetic software, and the pharmacokinetic parameters were calculated using a linear-log trapezoidal method.

[6] = test system: MIA PaCa-2 cells; experiment: In-vitro anti-proliferative activity in combination with gemcitabine against MIA PaCa-2 cells; format: cell-based; details: in combination with 20 nM gemcitabine, 72 h after dosing
Method: (§2) MIA PaCa-2 cells were seeded on a 384-well plate at 3000 cells/well, and 20 nM gemcitabine was added. After overnight adherence culture, DMSO or the compounds serially diluted 1:5 from 100 nM were added. […] The inhibition percentage of viable cells by the compounds was calculated by comparing with the DMSO group, and the IC50 value was calculated.

[7] = test system: Human colon cancer LOVO cells; experiment: In vivo efficacy in LoVo model; set-up: species or system nude mouse; details: LoVo model in nude mice, 20 mpk BID PO, days 1-3, 8-10, 15-17 and day 21
Method: After being subcultured, the cells were collected when they reached the desired amount. 1×10^7 LOVO cells were injected into the left dorsal side of each nude mouse, and the animals were randomly grouped for administration after tumors grew to 100-200 mm^3. The groups were as follows: a solvent control group of 8 mice and a compound group of 8 mice. The compounds were administered orally 3 days a week and interrupted for 4 days, for 21 consecutive days. The vehicle was a 0.5% MC suspension containing 1% tween-80. On Tuesday and Thursday each week, tumor volumes and body weight of the mice were measured, and the nude mice were sacrificed on day 21 after the administration. […] The toxicity of the compounds was evaluated according to the body weight of the mice.

[8] = test system: MIA PaCa-2 cells; experiment: In-vitro anti-proliferative activity against MIA PaCa-2 cells; format: cell-based; details: 72 h after dosing, intracellular ATP content
Method: as §2, with “cells/well.” for “cells/well, and 20 nM gemcitabine was added.”, “5 μM” for “100 nM”

[9] = female, CD-1, mouse, plasma, Oral administration (10 mg/kg)
[10] = female, CD-1, mouse, plasma, Oral administration (10 mg/kg), read-out: Cmax
[11] = female, CD-1, mouse, plasma, Oral administration (10 mg/kg), read-out: Tmax
[12] = female, CD-1, mouse, plasma, iv, Injection (2 mg/kg)
[13] = compound 20 mpk BID PO 3 on/4 off + GMC 15 mpk QW IP
[14] = single agent, 20 mpk BID PO, 3on/4off
[15] = female, SD, rat, plasma, Oral administration (10 mg/kg)
[16] = female, SD, rat, plasma, iv, Injection (1 mg/kg)

- half-life at 1 μM [1]: 51.4 min
- AUC(0-t) [2, 9]: 3300 ng·h/mL
- bioavailability [2, 9]: 34.5%
- half-life [2, 9]: 46.8 min
- Cmax [2, 10]: 1720 ng/mL
- Tmax [2, 11]: 30 min
- AUC(0-t) [2, 12]: 1920 ng·h/mL
- clearance [2, 12]: 17.4 mL/min/kg
- half-life [2, 12]: 40.2 min
- Vd [2, 12]: 0.58 L/kg
- half-life at 1 μM [4]: 8.68 min
- AUC(0-t) [5, 15]: 8030 ng·h/mL
- bioavailability [5, 15]: 120%
- half-life [5, 15]: 171 min
- Cmax ([5]; female, SD, rat, plasma, Oral administration (10 mg/kg), read-out: Cmax): 1550 ng/mL
- Tmax ([5]; female, SD, rat, plasma, Oral administration (10 mg/kg), read-out: Tmax): 60 min
- AUC(0-t) [5, 16]: 669 ng·h/mL
- clearance [5, 16]: 24.9 mL/min/kg
- half-life [5, 16]: 103 min
- Vd ([5]; female, SD, rat, plasma, iv, Injection (1 mg/kg), read-out: Vdss): 3 L/kg
- pIC50 [6]: 8.82
- pIC50 ([8]; Homo sapiens): > 6.00
Molecule: C[C@@H]1COCCN1c1cc(C2(C#N)CCOCC2)c2ccnc(-c3ccn[nH]3)c2n1 [Compound 29]
- TGI(%) [3, 13]: 85.3%
- TGI(%) [3, 14]: 49.9%
- TGI(%) [7]: 83.2%

Molecule: C[C@@H]1COCCN1c1cc(C2(C#N)CCN(C)CC2)c2ccnc(-c3ccn[nH]3)c2n1 [Compound 43]
- half-life at 1 μM [1]: 9.44 min
- AUC(0-t) [2, 9]: 439 ng·h/mL
- bioavailability [2, 9]: 35.5%
- half-life [2, 9]: 47.4 min
- Cmax [2, 10]: 616 ng/mL
- Tmax [2, 11]: 15 min
- AUC(0-t) [2, 12]: 247 ng·h/mL
- clearance [2, 12]: 135 mL/min/kg
- half-life [2, 12]: 13.2 min
- Vd [2, 12]: 1.79 L/kg
- TGI(%) [3, 13]: 84.4%
- TGI(%) [3, 14]: 51.2%
- half-life at 1 μM [4]: 18.9 min
- pIC50 [6]: 8.91
- TGI(%) [7]: 75.3%
- pIC50 ([8]; Homo sapiens): > 6.00

Molecule: (R)-1-(2-(3-methylmorpholino)-8-(1H-pyrazol-5-yl)-1,7-naphthyridin-4-ylmethyl)cyclohexane-1-carbonitrile [Compound 25]
- T1/2 (min) Human [1]: 7.90 min
- AUC0-last ([2]; Injection (2 mg/kg)): 203.21 ng·h/mL
- Cl ([2]; Injection (2 mg/kg)): 82.02 mL/min/kg
- T1/2 ([2]; Injection (2 mg/kg)): 19.8 min
- Vdss ([2]; Injection (2 mg/kg)): 1.84 L/kg
- AUC0-last ([2]; Oral administration (10 mg/kg)): 1103.1 ng·h/mL
- Cmax ([2]; Oral administration (10 mg/kg)): 455 ng/mL
- F % ([2]; Oral administration (10 mg/kg)): 54.3%
- T1/2 ([2]; Oral administration (10 mg/kg)): 53.4 min
- Tmax ([2]; Oral administration (10 mg/kg)): 60 min
- TGI(%) [3, 13]: 86.1%
- T1/2 (min) Mouse [4]: 2.90 min
- AUC0-last ([5]; Injection (1 mg/kg)): 269.92 ng·h/mL
- Cl ([5]; Injection (1 mg/kg)): 61.75 mL/min/kg
- T1/2 ([5]; Injection (1 mg/kg)): 39 min
- Vdss ([5]; Injection (1 mg/kg)): 2.14 L/kg
- AUC0-last ([5]; Oral administration (10 mg/kg)): 1309.43 ng·h/mL
- Cmax ([5]; Oral administration (10 mg/kg)): 396.33 ng/mL
- F % ([5]; Oral administration (10 mg/kg)): 48.5%
- T1/2 ([5]; Oral administration (10 mg/kg)): 30 min
- Tmax ([5]; Oral administration (10 mg/kg)): 54 min
- pIC50 [6]: 9.59
- TGI(%) [7]: 84.0%
- pIC50 [8]: > 6.00

Source: patent US20240317741A1, “NAPHTHYRIDINE DERIVATIVE AS ATR INHIBITOR AND METHOD FOR PREPARING SAME” (WIGEN BIOMEDICINE TECHNOLOGY (SHANGHAI) CO., LTD., priority 2021, published 2024)
